Among the test systems are MDA-MB-435; SN12C renal; SW-620 colon; CAKI-1 renal; MCF7 breast; ACHN renal; HOP-92 NSCLC; NCI/ADR-RES ovarian; UO-31 renal; DU-145 prostate.
Common to all, as to assay: inhibition of tumour cell growth, NCI panel, 48 h

Each structure is given as a SMILES string.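 Method: 48-hour compound exposure of cells in 96-well plates, five concentrations, linear interpolation of endpoints. Here, GI50 denotes the concentration required for 50% inhibition of growth. TGI is the concentration that stops growth completely.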

Take `Cc1cc(C)n(C(=O)c2nn(-c3ccc(Cl)cc3)cc2O)n1`: the GI50 is 3.94 µM in the test with MDA-MB-435; 3.37 µM with SN12C renal; 8.02 µM with SW-620 colon; 4.23 µM with CAKI-1 renal; 4.52 µM with MCF7 breast; 3.77 µM in the test on ACHN renal. Besides, the GI50 in the test on HOP-92 NSCLC is 4.52 µM; with NCI/ADR-RES ovarian, 4.42 µM; in the test on UO-31 renal, 3.01 µM; in the test on DU-145 prostate, 6.23 µM. The TGI in the test on MDA-MB-435 was greater than 100 µM; in the test on SN12C renal, greater than 100 µM; in the test with SW-620 colon it was greater than 100 µM; with CAKI-1 renal, 42.3 µM; in the test with MCF7 breast, greater than 100 µM; with ACHN renal, greater than 100 µM. Further, the TGI was greater than 100 µM with HOP-92 NSCLC, greater than 100 µM in the test with NCI/ADR-RES ovarian, 19.2 µM in the test on UO-31 renal and greater than 100 µM in the test with DU-145 prostate.

As for `O=C(O)c1cscc1Cc1cccs1`, the TGI in the test on MDA-MB-435, in the test with SN12C renal, with SW-620 colon, with CAKI-1 renal, in the test with MCF7 breast and with ACHN renal was greater than 100 µM in each case. The TGI with HOP-92 NSCLC, with NCI/ADR-RES ovarian and with DU-145 prostate was greater than 100 µM in each case.

With `CN1CCN(CCNc2ccc(CO)c3sc4ccccc4c(=O)c23)CC1`, the GI50 in the test on MDA-MB-435 is 1.98 µM; in the test on SN12C renal, 3.64 µM; in the test with MCF7 breast, 1.85 µM; with NCI/ADR-RES ovarian, 2.56 µM; in the test with DU-145 prostate, 3.43 µM. Besides, the TGI with MDA-MB-435 was 4.51 µM; in the test on SN12C renal, 15.4 µM; in the test with SW-620 colon it was 14.1 µM; in the test on CAKI-1 renal, 19.8 µM; with MCF7 breast it was 8.77 µM; with ACHN renal it was 26.7 µM. For the same molecule, the TGI in the test on HOP-92 NSCLC came out at 13.2 µM; with NCI/ADR-RES ovarian it was 14.3 µM; in the test on UO-31 renal, 19.6 µM; in the test with DU-145 prostate it was 11.9 µM.

On to `COc1ccc2c(c1)cn1c3ccc(O)cc3[nH]c(=O)c21`, for which the GI50 in the test on MDA-MB-435 was 0.0252 µM; with SN12C renal it was 0.403 µM; in the test on SW-620 colon, 0.043 µM; in the test on CAKI-1 renal it was 0.302 µM; with MCF7 breast it was 0.366 µM; in the test on ACHN renal, 0.112 µM. The GI50 in the test with HOP-92 NSCLC was 2.53 µM; with NCI/ADR-RES ovarian, 0.187 µM; in the test on UO-31 renal, 0.264 µM; in the test on DU-145 prostate, 0.234 µM. The TGI with MDA-MB-435 was determined as 0.171 µM; with SN12C renal, 17.9 µM; with SW-620 colon, 2.55 µM; in the test on CAKI-1 renal, 16.3 µM; in the test on MCF7 breast it was 1.95 µM; with ACHN renal it was 1.99 µM. Besides, the TGI in the test with HOP-92 NSCLC amounted to 18.2 µM; in the test with NCI/ADR-RES ovarian, 11.8 µM; in the test on UO-31 renal it was 13.1 µM; in the test with DU-145 prostate, 8.74 µM.

On to `COc1cc(C2=NN(c3ccc(S(N)(=O)=O)cc3)C(c3ccc(Cl)cc3)C2)cc(OC)c1OC` (stereo not drawn), for which the GI50 in the test on MDA-MB-435 was 3.74 µM; in the test on SN12C renal, 6.67 µM; in the test on SW-620 colon it was 4.49 µM; with MCF7 breast, 3.36 µM; with ACHN renal, 2.62 µM; in the test on HOP-92 NSCLC, 2.02 µM. Besides, the values for the GI50 with NCI/ADR-RES ovarian, with UO-31 renal and with DU-145 prostate were 3.76 µM, 2.5 µM and 9.78 µM, respectively. Besides, the TGI with MDA-MB-435 is greater than 100 µM; in the test on SN12C renal it was greater than 100 µM; in the test on SW-620 colon it was greater than 100 µM; in the test on MCF7 breast it was greater than 100 µM; in the test with ACHN renal, 9.27 µM; with HOP-92 NSCLC, 14.5 µM. Besides, the TGI in the test with NCI/ADR-RES ovarian, in the test with UO-31 renal and in the test with DU-145 prostate was greater than 100 µM each time.

As for `COc1cc(-c2cc(/C=C3\C(=O)Nc4ccccc43)[nH]n2)cc(OC)c1OC`, the GI50 is 2.38 µM in the test on MDA-MB-435; 3.58 µM with SN12C renal; 3.33 µM in the test on SW-620 colon; 2.77 µM with MCF7 breast; 2.5 µM in the test on ACHN renal; 1.97 µM in the test on HOP-92 NSCLC. The figures for the GI50 in the test with NCI/ADR-RES ovarian, in the test on UO-31 renal and with DU-145 prostate were 2.33 µM, 1.91 µM and 4.35 µM, respectively. Also, the TGI in the test on MDA-MB-435 stood at 6.25 µM; with SN12C renal, 14.5 µM; in the test with SW-620 colon it was 18.9 µM; in the test on MCF7 breast, 11 µM; in the test with ACHN renal, 12 µM; with HOP-92 NSCLC, 9.12 µM. The TGI in the test on NCI/ADR-RES ovarian came to 6.67 µM; in the test with UO-31 renal, 12.2 µM; in the test on DU-145 prostate it was 15.1 µM.

Take `C(=C\c1nccc2c1[nH]c1ccccc12)/c1ccccc1`: the GI50 was 0.356 µM with MDA-MB-435; 3.83 µM in the test with SN12C renal; 2.39 µM in the test on SW-620 colon; 2.15 µM in the test with MCF7 breast; 4.82 µM with ACHN renal; 2.19 µM in the test on HOP-92 NSCLC. The GI50 was 3.1 µM in the test with NCI/ADR-RES ovarian, 1.58 µM in the test with UO-31 renal and 3.5 µM in the test on DU-145 prostate. In addition, the TGI in the test with MDA-MB-435 came out at 1.81 µM; in the test on SN12C renal, 76.7 µM; in the test with SW-620 colon, 18.1 µM; with MCF7 breast, 23 µM; in the test on ACHN renal, 20.8 µM; in the test with HOP-92 NSCLC it was 19.8 µM. Besides, the TGI with NCI/ADR-RES ovarian was 20.3 µM; in the test with UO-31 renal, 17.4 µM; in the test with DU-145 prostate, 12.3 µM.

As for `O=[N+]([O-])c1ccc(/C=C(/c2ccc([N+](=O)[O-])o2)S(=O)(=O)c2ccccc2)o1`, the TGI in the test on MDA-MB-435 is 29 µM; in the test with SW-620 colon, 5.55 µM; in the test with CAKI-1 renal, 33 µM; in the test with MCF7 breast it was 72.7 µM; with ACHN renal it was 8.69 µM; in the test with HOP-92 NSCLC it was 27.8 µM. The TGI amounted to 39.1 µM in the test on NCI/ADR-RES ovarian, 16.3 µM in the test with UO-31 renal and 28 µM in the test on DU-145 prostate.

In the case of `Cc1ccc(C2C3=C(N=c4s/c(=C/c5ccc(Br)cc5)c(=O)n42)c2ccc4ccccc4c2OCC3)cc1` (stereo not drawn), the GI50 with MDA-MB-435, in the test with SW-620 colon, in the test with MCF7 breast, in the test on ACHN renal, in the test on HOP-92 NSCLC and in the test on NCI/ADR-RES ovarian was greater than 100 µM in each case. Moreover, the GI50 in the test with UO-31 renal and in the test with DU-145 prostate was greater than 100 µM each time. Moreover, the TGI in the test with MDA-MB-435, with SW-620 colon, with MCF7 breast, with ACHN renal, with HOP-92 NSCLC and in the test with NCI/ADR-RES ovarian was greater than 100 µM each time. In addition, the TGI in the test with UO-31 renal and in the test with DU-145 prostate was greater than 100 µM each time.

The values are drawn from PubChem BioAssay (NCI).
